{"source": "patent US20060128695A1", "about": "“Cyclic nucleotide phosphodiesterase inhibitors, preparation and uses” (NEURO3D, priority 2002, published 2006)", "key": {"[1]": {"molecular_target": "T1, PDE3 (Bos taurus, UniProt A0A3Q1M1E8)", "T1 sequence (A0A3Q1M1E8 1-1126)": "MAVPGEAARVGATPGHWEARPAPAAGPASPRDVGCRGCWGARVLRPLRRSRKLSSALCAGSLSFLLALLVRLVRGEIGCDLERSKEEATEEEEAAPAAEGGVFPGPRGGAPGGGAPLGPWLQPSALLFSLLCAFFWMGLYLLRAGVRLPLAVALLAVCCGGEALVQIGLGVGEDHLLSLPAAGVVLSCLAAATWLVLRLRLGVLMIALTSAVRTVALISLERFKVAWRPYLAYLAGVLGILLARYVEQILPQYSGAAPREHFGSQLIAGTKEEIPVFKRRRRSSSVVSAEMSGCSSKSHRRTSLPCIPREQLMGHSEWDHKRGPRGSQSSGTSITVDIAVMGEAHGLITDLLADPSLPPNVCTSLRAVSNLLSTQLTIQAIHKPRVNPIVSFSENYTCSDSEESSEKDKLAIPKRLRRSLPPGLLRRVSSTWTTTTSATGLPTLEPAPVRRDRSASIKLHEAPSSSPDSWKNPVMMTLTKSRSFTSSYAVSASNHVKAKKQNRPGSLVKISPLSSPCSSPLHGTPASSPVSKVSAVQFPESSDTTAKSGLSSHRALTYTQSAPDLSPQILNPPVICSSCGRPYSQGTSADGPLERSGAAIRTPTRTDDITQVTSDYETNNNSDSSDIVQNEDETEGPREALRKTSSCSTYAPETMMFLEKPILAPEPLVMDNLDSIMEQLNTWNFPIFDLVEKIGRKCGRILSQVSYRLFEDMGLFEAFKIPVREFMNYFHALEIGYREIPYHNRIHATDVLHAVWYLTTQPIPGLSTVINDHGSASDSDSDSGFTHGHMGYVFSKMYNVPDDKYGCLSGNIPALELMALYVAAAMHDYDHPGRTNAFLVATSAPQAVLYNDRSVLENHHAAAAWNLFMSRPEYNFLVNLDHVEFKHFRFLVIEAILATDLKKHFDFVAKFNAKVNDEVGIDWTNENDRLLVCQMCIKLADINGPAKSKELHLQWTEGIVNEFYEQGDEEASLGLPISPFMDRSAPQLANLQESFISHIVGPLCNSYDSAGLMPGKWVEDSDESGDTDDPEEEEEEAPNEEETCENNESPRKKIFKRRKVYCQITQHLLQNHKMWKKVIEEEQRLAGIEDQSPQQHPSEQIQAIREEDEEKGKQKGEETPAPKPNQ", "assay": "Selectivity: inhibition of PDE3, radioenzymatic phosphodiesterase assay", "format": "biochemical, bovine", "conditions": "10 μM test compound; vascular smooth muscle; read-out: PDE3 percentage inhibition at 10 μM", "protocol": "(§1) A 3 g segment of bovine aortic media cut into pieces with scissors was homogenized with an ultra-turrax then a potter glass/glass homogenizer in 7 volumes by weight of buffer A containing a protease inhibitor cocktail (20 mM Tris-HCl, 0.25 M saccharose, 2 mM magnesium acetate, 1 mM dithiothreitol, 5 mM EGTA, 2000 U/ml aprotinin, 10 mg/l leupeptin and 10 mg/l soya trypsic inhibitor). The homogenizate was centrifuged at 105,000 g for 1 hour. The supernatant was loaded on a DEAE-Sephacel column (15 x 1.6 cm) pre-equilibrated with buffer B (buffer A without the saccharose, EGTA and protease inhibitors). The column was washed until there was no detectable absorption at 280 nm, then eluted with a linear gradient of NaCl (0-0.5 M) in buffer B. 3-ml fractions were collected and enzyme activity was determined under the conditions described hereinbelow to localize the different enzymes PDE1, PDE3, PDE4 and PDE5 which were aliquoted and frozen at −80° C. (Lugnier et al., Biochem. Phamacol., 1986, 35: 1746-1751). PDE2 was prepared from bovine endothelial cells by the same methods (Lugnier and Schini, Biochem. Pharmacol., 1990, 39: 75-84).\n(§2) Cyclic nucleotide phosphodiesterase activity was determined by a radioenzymatic method using tritium-labelled cyclic GMP or AMP (1 μM) as substrate (Lugnier et al., 1986). ^3H-labelled adenosine or guanosine monophosphate formed by hydrolysis of the radiolabelled cyclic nucleotide was then converted to ^3H-labelled adenosine or guanosine in a second reaction with […] in excess. The nucleoside formed was separated from the nucleotides by anion exchange chromatography. Nucleoside radioactivity was determined by liquid scintillation counting. […]\n(§3) The activity of the compounds was evaluated on other phosphodiesterase isoforms, particularly basal state or calmodulin-activated PDEl from vascular smooth muscle, PDE3, PDE4 and PDE5 from vascular smooth muscle.\n(§4) The results obtained are presented in Tables 1 and 2 hereinbelow and are expressed as the percentage inhibition of enzymatic activity produced by […] of the test compound."}, "[2]": {"tested_on": "PDE4", "assay": "Selectivity: inhibition of PDE4, radioenzymatic phosphodiesterase assay", "format": "biochemical, bovine", "conditions": "10 μM test compound; vascular smooth muscle", "protocol": "as §1\n(§5) Cyclic nucleotide phosphodiesterase activity was determined by a radioenzymatic method using tritium-labelled cyclic GMP or AMP (1 μM) as substrate (Lugnier et al., 1986). ^3H-labelled adenosine or guanosine monophosphate formed by hydrolysis of the radiolabelled cyclic nucleotide was then converted to ^3H-labelled adenosine or guanosine in a second reaction with […] in excess. The nucleoside formed was separated from the nucleotides by anion exchange chromatography. Nucleoside radioactivity was determined by liquid scintillation counting. Enzymatic incubations were carried out under conditions allowing no more than 15% hydrolysis of the substrate; each point was performed in duplicate.\nas §3, §4"}, "[3]": {"tested_on": "PDE1", "assay": "Selectivity: inhibition of PDE1, radioenzymatic phosphodiesterase assay", "format": "biochemical, bovine", "conditions": "10 μM test compound; vascular smooth muscle", "protocol": "as §1, §2, §3, §4"}, "[4]": {"molecular_target": "T2, PDE5 (Bos taurus, UniProt Q28156)", "T2 construct": "localize the different enzymes PDE1, PDE3, PDE4 and PDE5 which were aliquoted and frozen; from tissue; host or cells: bovine aortic media (vascular smooth muscle)", "assay": "Selectivity: inhibition of PDE5, radioenzymatic phosphodiesterase assay", "format": "biochemical, bovine", "conditions": "10 μM test compound; vascular smooth muscle; read-out: PDE5 percentage inhibition at 10 μM", "protocol": "as §1, §5, §3, §4"}, "[5]": {"tested_on": "mice", "assay": "Light/dark test", "format": "in vivo, Balb/c or Swiss mice", "conditions": "mice, 0.3, 3 and 30 mg/kg orally 1 hour before the test, versus controls (p<0.01)", "excerpt": "This light/dark test is based on the natural tendency of rodents to prefer a dark environment and thereby evaluates the emotional responses of the animals in a situation of bright light. This procedure is suitable for assessing the state of anxiety elicited by anxiety stimuli (Lister's group, 1990). Mice placed in the apparatus, while showing a preference for the dark zone, nonetheless explore the light zone.\nTen to eleven-week old Balb/c or Swiss mice were used. Mice were randomly divided into a control group (treated with the vehicle) and other groups treated with the test compounds.\nThe test apparatus consisted of two PVC compartments (20×20×14 cm). with a plexiglass lid. One of the compartments was dark. A 100W light bulb was placed 15 cm above the other compartment, emitting the only light in the room (approximately 4400 lux). An opaque plastic tunnel separated the light and dark compartments.\nThe animal was placed in the light compartment with its head pointed towards the tunnel. The time spent in the light compartment and the number of entries into the light compartment were recorded for 5 minutes after the first entry into the dark zone. The test compound or the control treatment were administered orally 1 hour before the test.\nN=10; ** p<0.01; **** p<0.001 (Dunnett test versus control)."}}, "data": [{"molecule": "COc1cc2c(cc1OC)N(C)C(=O)CN=C2c1cccc(C(N)=O)c1", "note": "[Compound 5a, 3-(7,8-dimethoxy-1-methyl-2-oxo-2,3-dihydro-1H-1,4-benzodiazepin-5-yl)-benzamide]", "values": [{"measurement": "inhibition at 10 µM", "setting": "[1]", "result": 5, "unit": "%"}, {"measurement": "PDE4 percentage inhibition at 10 μM", "setting": "[2]", "result": 16.2, "unit": "%"}, {"measurement": "PDE1 percentage inhibition at 10 μM", "setting": "[3]", "result": 13.2, "unit": "%"}, {"measurement": "inhibition at 10 µM", "setting": "[4]", "result": 17.6, "unit": "%"}, {"measurement": "time spent in the light compartment", "setting": "[5]", "result": "significantly more time in the light compartment"}]}]}
